Measurements taken from PMC12396409, “Screening and hit evaluation of a microbial metabolite library against the pathogenic Plasmodium falciparum and Toxoplasma gondii parasites” (International Journal for Parasitology: Drugs and Drug …, 2025).
Like-named read-outs stand apart in the source and are kept apart here.

Tests used:
[1] = tested on: P. falciparum 3D7 parasites; assay: P. falciparum growth inhibition assay, 1-cycle (72 h treatment), SYBR DNA staining (library screen at 2 μg/mL and dose-response); type: cell-based, Plasmodium falciparum; details: for activity at 2 µg/mL: Plasmodium falciparum
[2] = tested on: P. falciparum 3D7 parasites; assay: P. falciparum growth inhibition assay, 2-cycle (120 h treatment), delayed-death screen and dose-response; type: cell-based, Plasmodium falciparum; details: for activity at 2 µg/mL: Plasmodium falciparum
[3] = tested on: T. gondii RH strain (RH-Tub-eYFP) tachyzoites; assay: microbe, parasite or virus in culture; type: cell-based, Toxoplasma gondii; details: 72 h; for percent parasite growth at 2 µg/mL: Toxoplasma gondii
[4] = library screen at 2 μg/mL, 72 h, % growth, replicate 1
[5] = library screen at 2 μg/mL, 72 h, % growth, replicate 2
[6] = library screen at 2 μg/mL, 120 h, % growth, replicate 1
[7] = library screen at 2 μg/mL, 120 h, % growth, replicate 2
[8] = library screen at 2 μg/mL, % growth, replicate 1
[9] = library screen at 2 μg/mL, % growth, replicate 2
[10] = P. falciparum, 72 h, screen at 2 μg/mL, replicate 1
[11] = P. falciparum, 72 h, screen at 2 μg/mL, replicate 2
[12] = P. falciparum, 120 h, screen at 2 μg/mL, replicate 1
[13] = P. falciparum, 120 h, screen at 2 μg/mL, replicate 2
[14] = T. gondii, screen at 2 μg/mL, replicate 1
[15] = T. gondii, screen at 2 μg/mL, replicate 2
[16] = P. falciparum 3D7, 72 h, parasite screen at 2 μg/mL, % growth, replicate 1
[17] = P. falciparum 3D7, 72 h, parasite screen at 2 μg/mL, % growth, replicate 2
[18] = P. falciparum 3D7, 120 h, parasite screen at 2 μg/mL, % growth, replicate 1
[19] = P. falciparum 3D7, 120 h, parasite screen at 2 μg/mL, % growth, replicate 2
[20] = T. gondii, parasite screen at 2 μg/mL, % growth, replicate 1
[21] = T. gondii, parasite screen at 2 μg/mL, % growth, replicate 2
[22] = P. falciparum, 72 h, parasite screen 2 μg/mL, % growth, replicate 1
[23] = P. falciparum, 72 h, parasite screen 2 μg/mL, % growth, replicate 2
[24] = P. falciparum, 120 h, parasite screen 2 μg/mL, % growth, replicate 1
[25] = P. falciparum, 120 h, parasite screen 2 μg/mL, % growth, replicate 2
[26] = T. gondii, parasite screen 2 μg/mL, % growth, replicate 1
[27] = T. gondii, parasite screen 2 μg/mL, % growth, replicate 2

C=CC(C)(C)c1[nH]c2c(CC=C(C)C)cc(CC=C(C)C)cc2c1C[C@@H]1NC(=O)[C@H](C)NC1=O [Echinulin]
activity at 2 µg/mL ([1]; 3D7, library screen at 2 μg/mL, 72 h, % growth, replicate 1, read-out: Pf_72h_%Growth_Rep1): 25.2%
activity at 2 µg/mL ([1]; 3D7, library screen at 2 μg/mL, 72 h, % growth, replicate 2, read-out: Pf_72h_%Growth_Rep2): 35.1%
activity at 2 µg/mL ([2]; 3D7, library screen at 2 μg/mL, 120 h, % growth, replicate 1, read-out: Pf_120h_%Growth_Rep1): 22.8%
activity at 2 µg/mL ([2]; 3D7, library screen at 2 μg/mL, 120 h, % growth, replicate 2, read-out: Pf_120h_%Growth_Rep2): 39.3%
percent parasite growth at 2 µg/mL ([3]; library screen at 2 μg/mL, % growth, replicate 1, read-out: Tg_72h_%Growth_Rep1): 133%
percent parasite growth at 2 µg/mL ([3]; library screen at 2 μg/mL, % growth, replicate 2, read-out: Tg_72h_%Growth_Rep2): 104%

C=C(C)[C@@H]1CC[C@]2(C)CC[C@]3(C)[C@H](CC[C@@H]4[C@@]5(C)CC[C@H](O)C(C)(C)[C@@H]5CC[C@]43C)[C@@H]12 [BIA-L1759]
Pf_72h_%Growth_Rep1 ([1]; P. falciparum 3D7, 72 h, library screen at 2 μg/mL, % growth, replicate 1): 81.82%
Pf_72h_%Growth_Rep2 ([1]; P. falciparum 3D7, 72 h, library screen at 2 μg/mL, % growth, replicate 2): 111.85%
Pf_120h_%Growth_Rep1 ([2]; P. falciparum 3D7, 120 h, library screen at 2 μg/mL, % growth, replicate 1): 99.08%
Pf_120h_%Growth_Rep2 ([2]; P. falciparum 3D7, 120 h, library screen at 2 μg/mL, % growth, replicate 2): 111.54%
Tg_72h_%Growth_Rep1 ([3]; T. gondii RH, library screen at 2 μg/mL, % growth, replicate 1): 110.92%
Tg_72h_%Growth_Rep2 ([3]; T. gondii RH, library screen at 2 μg/mL, % growth, replicate 2): 91.52%

CO[C@H]1C[C@H](O[C@H]2[C@H](C)O[C@@H](O[C@@H]3/C(C)=C/C[C@@H]4C[C@@H](C[C@]5(C=C[C@H](C)[C@@H](C6CCCCC6)O5)O4)OC(=O)[C@@H]4C=C(C)[C@@H](O)[C@H]5OC/C(=C\C=C\[C@@H]3C)[C@]54O)C[C@@H]2OC)O[C@@H](C)[C@@H]1O [Doramectin]
Pf_72h_%Growth_Rep1 [1, 4]: 86.87%
Pf_72h_%Growth_Rep2 [1, 5]: 79.49%
Pf_120h_%Growth_Rep1 [2, 6]: 100.88%
Pf_120h_%Growth_Rep2 [2, 7]: 96.33%
Tg_72h_%Growth_Rep1 [3, 8]: 127.97%
Tg_72h_%Growth_Rep2 [3, 9]: 102.84%

COc1ccc(C[C@H]2NC[C@H](O)[C@H]2OC(C)=O)cc1 [Anisomycin]
Pf_72h_%Growth_Rep1 [1, 4]: 2.13%
Pf_72h_%Growth_Rep2 [1, 5]: 2.45%
Pf_120h_%Growth_Rep1 [2, 6]: 9.82%
Pf_120h_%Growth_Rep2 [2, 7]: -15.33%
Tg_72h_%Growth_Rep1 [3, 8]: 0.93%
Tg_72h_%Growth_Rep2 [3, 9]: 1.73%

CN(CC[C@H](N)CC(=O)N[C@H]1C=C[C@H](n2ccc(N)nc2=O)O[C@@H]1C(=O)O)C(=N)N [Blasticidin S]
activity at 2 µg/mL ([1]; 3D7, 72 h, P. falciparum, 72 h, screen at 2 μg/mL, replicate 1, read-out: Pf_72h_%Growth_Rep1): 4.31%
activity at 2 µg/mL ([1]; 3D7, 72 h, P. falciparum, 72 h, screen at 2 μg/mL, replicate 2, read-out: Pf_72h_%Growth_Rep2): 2.87%
activity at 2 µg/mL ([2]; 3D7, 120 h, P. falciparum, 120 h, screen at 2 μg/mL, replicate 1, read-out: Pf_120h_%Growth_Rep1): 5.52%
activity at 2 µg/mL ([2]; 3D7, 120 h, P. falciparum, 120 h, screen at 2 μg/mL, replicate 2, read-out: Pf_120h_%Growth_Rep2): -7.54%
percent parasite growth at 2 µg/mL ([3]; T. gondii, screen at 2 μg/mL, replicate 1, read-out: Tg_72h_%Growth_Rep1): 73.3%
percent parasite growth at 2 µg/mL ([3]; T. gondii, screen at 2 μg/mL, replicate 2, read-out: Tg_72h_%Growth_Rep2): 30%

CC(=O)N[C@H]1[C@H](O[C@@H]2c3ccc(c(Cl)c3)Oc3cc4cc(c3O)Oc3ccc(cc3Cl)C[C@H]3NC(=O)[C@H](N)c5ccc(O)c(c5)Oc5cc(O)cc(c5)[C@H](NC3=O)C(=O)N[C@H]4C(=O)N[C@H]3C(=O)N[C@@H]2C(=O)N[C@H](C(=O)O)c2cc(O)cc(O[C@H]4O[C@H](CO)[C@@H](O)[C@H](O)[C@@H]4O)c2-c2cc3ccc2O)O[C@H](CO)[C@@H](O)[C@@H]1O [Teicoplanin A3-1]
Pf_72h_%Growth_Rep1 [1, 10]: 83.89%
Pf_72h_%Growth_Rep2 [1, 11]: 89.40%
Pf_120h_%Growth_Rep1 [2, 12]: 162.68%
Pf_120h_%Growth_Rep2 [2, 13]: 89.82%
Tg_72h_%Growth_Rep1 [3, 14]: 92.73%
Tg_72h_%Growth_Rep2 [3, 15]: 87.18%

CCCC[C@H](O)[C@@H]1CC(OC)=CC(=O)O1 [BIA-P1067]
Pf_72h_%Growth_Rep1 [1, 16]: 81.23%
Pf_72h_%Growth_Rep2 [1, 17]: 52.23%
Pf_120h_%Growth_Rep1 [2, 18]: 77.65%
Pf_120h_%Growth_Rep2 [2, 19]: 111.54%
Tg_72h_%Growth_Rep1 [3, 20]: 91.14%
Tg_72h_%Growth_Rep2 [3, 21]: 92.83%

CC[C@H]1CCC[C@H](O)[C@@H](C)C(=O)C2=C[C@@H]3[C@@H](C=C(C)[C@@H]4C[C@@H](O)C[C@@H]34)[C@@H]2CC(=O)O1 [Spinosyn D aglycone]
IC50 ([1]; 3D7, 72 h treatment, mean ± S.D., n ≥ 3, read-out: IC50 (μM), P. falciparum): > 1 µM
Pf_72h_%Growth_Rep1 [1, 22]: 82.67%
Pf_72h_%Growth_Rep2 [1, 23]: 106.85%
Screen (P. falciparum) ([1]; library screen at 2 μg/mL, 3D7, 72 h, DD from the 120 h timepoint): I
Pf_120h_%Growth_Rep1 [2, 24]: 82.24%
Pf_120h_%Growth_Rep2 [2, 25]: 90.76%
Tg_72h_%Growth_Rep1 [3, 26]: 115.34%
Tg_72h_%Growth_Rep2 [3, 27]: 86.84%

CCC/C=C/C=C/C1C[C@@H](O)[C@@H](O)C(=O)[C@H]1C=O (some centres unmarked) [Frequentin]
Pf_72h_%Growth_Rep1 [1, 4]: 84.65%
Pf_72h_%Growth_Rep2 [1, 5]: 84.20%
Pf_120h_%Growth_Rep1 [2, 6]: 99.31%
Pf_120h_%Growth_Rep2 [2, 7]: 94.53%
Tg_72h_%Growth_Rep1 [3, 8]: 198.87%
Tg_72h_%Growth_Rep2 [3, 9]: 96.89%

CC(C)[C@H]1C(=O)OC[C@H](NC(=O)c2nc3ccccc3cc2O)C(=O)N2CCCC[C@@H]2C(=O)NCC(=O)N(C)CC(=O)N(C)[C@H](C(C)C)C(=O)OC[C@@H](NC(=O)c2nc3ccccc3cc2O)C(=O)N2CCCC[C@@H]2C(=O)NCC(=O)N(C)CC(=O)N1C [Sandramycin]
Pf_72h_%Growth_Rep1 [1, 22]: -1.10%
Pf_72h_%Growth_Rep2 [1, 23]: -0.11%
Pf_120h_%Growth_Rep1 [2, 24]: -0.53%
Pf_120h_%Growth_Rep2 [2, 25]: 18.12%
Tg_72h_%Growth_Rep1 [3, 26]: 1.61%
Tg_72h_%Growth_Rep2 [3, 27]: 2.90%

COc1cccc2oc3c4c(cc(OC)c3c(=O)c12)O[C@H]1OC=C[C@@H]41 [BIA-M1214]
Pf_72h_%Growth_Rep1 [1, 16]: 80.14%
Pf_72h_%Growth_Rep2 [1, 17]: 43.63%
Pf_120h_%Growth_Rep1 [2, 18]: 94.17%
Pf_120h_%Growth_Rep2 [2, 19]: 84.03%
Tg_72h_%Growth_Rep1 [3, 20]: 111.85%
Tg_72h_%Growth_Rep2 [3, 21]: 93.41%

CCCNC[C@]1(O)[C@H](C)O[C@@H](O[C@H]2[C@H](C)[C@@H](O[C@@H]3O[C@H](C)C[C@H](N(C)C)[C@H]3O)[C@](C)(O)C[C@@H](C)CN[C@H](C)[C@@H](O)[C@](C)(O)[C@@H](CC)OC(=O)[C@@H]2C)C[C@@]1(C)OC [Tulathromycin, reference compound]
1) Growth (%) at 72 h ([1]; P. falciparum, 2 μg/mL, 72 h): 33.53%
Pf_72h_%Growth_Rep1 [1, 10]: 33.36%
Pf_72h_%Growth_Rep2 [1, 11]: 33.69%
2) Growth (%) at 120 h ([2]; P. falciparum, 2 μg/mL, 120 h): 16.75%
Pf_120h_%Growth_Rep1 [2, 12]: 21.75%
Pf_120h_%Growth_Rep2 [2, 13]: 11.74%
3) Fold change (72 h/120 h) ([2]; P. falciparum, growth at 72 h / growth at 120 h, 2 μg/mL): 2.0
Tg_72h_%Growth_Rep1 [3, 14]: 76.92%
Tg_72h_%Growth_Rep2 [3, 15]: 80.94%

CC(C)[C@@H]1NC(=O)[C@H](Cc2ccc(O)cc2)NC1=O [Cyclo(L-Tyr-L-Val)]
Pf_72h_%Growth_Rep1 [1, 10]: 84.64%
Pf_72h_%Growth_Rep2 [1, 11]: 82.94%
Pf_120h_%Growth_Rep1 [2, 12]: 98.73%
Pf_120h_%Growth_Rep2 [2, 13]: 89.51%
Tg_72h_%Growth_Rep1 [3, 14]: 164.57%
Tg_72h_%Growth_Rep2 [3, 15]: 103.47%

CC(C)CCC[C@@H](C)[C@@H]1CC[C@]2(C)C3=C(CC[C@@]12C)[C@@]1(C)CC[C@H](O)C(C)(C)[C@@H]1CC3 [Dihydroeuphol]
Pf_72h_%Growth_Rep1 [1, 4]: 82.89%
Pf_72h_%Growth_Rep2 [1, 5]: 91.07%
Pf_120h_%Growth_Rep1 [2, 6]: 82.20%
Pf_120h_%Growth_Rep2 [2, 7]: 96.98%
Tg_72h_%Growth_Rep1 [3, 8]: 139.10%
Tg_72h_%Growth_Rep2 [3, 9]: 102.23%
